Reference: patent publication US20250160366A1, “MEANS AND METHODS FOR MODULATING SECONDARY METABOLITE IN AN ANIMAL” (DSM IP Assets B.V., priority 2022, published 2025)

Experiments:
[1] = OP at 1000 mg/kg feed, positive control 30 g GABA per ton of feed
[2] = in mice; cited from earlier work
[3] = GABA supplementation at 30 g/MT; Li et al. 2015, Bi et al. 2020; cited from earlier work

For `NCCCC(=O)O` [GABA, Gamma-aminobutyric acid], the “fold change (compared to day 0) of plasma COR as stress indicator” value [1] was 0.70, the “fold change (compared to day 0) of plasma NPY as stress-resistance indicator” value [1] was 0.51 and the “plasma GABA fold change compared to day 0” value ([1]; day 12) was 1.07. The “half-life of GABA in the body” value [2] was “less than 17 min”, the biting incidences [3] was “lower” and the growth performance [3] was “increase”. For the same compound, the stress-related parameters [3] was “improve”.
